Columns and labels:
STAT6 = STAT6 (Homo sapiens (Human), UniProt P42226); assay: STAT6 degrader assay (HiBiT, HeLa LgBiT clone 4.14); assay type: cell-based; conditions: HeLa LgBiT clone 4.14, 4-24 h; geometric mean; given for compounds with >80% Emax; read-out: STAT6 degradation DC50
How it was run: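 DC50 (nM) comes from luminescence of non-degraded STAT6 read 0.5 h after Nano-GLO addition, following 4-24 h compound exposure at 37° C. Cells were HeLa clone 4.14 expressing LgBiT with a CRISPR HiBiT tag on endogenous STAT6; 50 μM terfenadine set full degradation.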

eotaxin-3 release = assay: Human whole blood eotaxin-3 assay (IL-4 stimulated); assay type: cell-based; conditions: human whole blood, IL-4 0.4 nM, 48 hours; geometric mean; given for compounds with >80% Emax; read-out: Eotaxin-3 EC50
How it was run: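 Human whole blood was preincubated with compound for 120 min at 37 °C, then stimulated with recombinant human IL-4 (E. coli) at 0.4 nM final for 48 h. Inhibition of eotaxin-3 release gave EC50 values.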

Sequence of STAT6 (P42226 whole entry): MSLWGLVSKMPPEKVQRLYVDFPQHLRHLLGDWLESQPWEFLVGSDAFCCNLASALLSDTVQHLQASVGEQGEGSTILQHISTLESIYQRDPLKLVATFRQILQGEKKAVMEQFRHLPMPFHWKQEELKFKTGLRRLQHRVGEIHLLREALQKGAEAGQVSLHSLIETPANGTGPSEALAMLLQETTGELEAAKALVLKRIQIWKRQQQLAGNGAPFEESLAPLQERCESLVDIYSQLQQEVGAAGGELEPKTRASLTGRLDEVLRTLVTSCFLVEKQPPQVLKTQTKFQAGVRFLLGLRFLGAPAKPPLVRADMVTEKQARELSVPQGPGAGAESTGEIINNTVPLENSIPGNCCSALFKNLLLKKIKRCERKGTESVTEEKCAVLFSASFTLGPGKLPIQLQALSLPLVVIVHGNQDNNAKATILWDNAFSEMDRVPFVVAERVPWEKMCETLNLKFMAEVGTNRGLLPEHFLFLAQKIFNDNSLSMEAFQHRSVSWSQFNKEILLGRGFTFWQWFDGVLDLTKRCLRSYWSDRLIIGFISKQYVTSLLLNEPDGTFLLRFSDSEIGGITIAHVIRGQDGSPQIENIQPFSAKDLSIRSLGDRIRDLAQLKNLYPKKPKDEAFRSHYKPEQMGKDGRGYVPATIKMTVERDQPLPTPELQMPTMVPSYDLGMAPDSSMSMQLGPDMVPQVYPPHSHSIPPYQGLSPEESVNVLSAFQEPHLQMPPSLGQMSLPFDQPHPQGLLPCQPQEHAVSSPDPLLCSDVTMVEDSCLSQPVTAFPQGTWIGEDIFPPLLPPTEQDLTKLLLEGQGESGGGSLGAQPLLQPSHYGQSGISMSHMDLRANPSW

SMILES	DC50 (STAT6)	EC50 (eotaxin-3 release)
C[C@H]1CN(Cc2cc3c(cc2F)n([C@H]2CCC(=O)NC2=O)c(=O)n3C2CC2)CCN1CC1CCN(C(=O)c2ccc(C3CCN([C@@H](C)c4cc5c(-c6ccc(N)nc6)ccnc5n4C)CC3)cc2)CC1 (single isomer, unassigned) [Example 3e62]	0.8 nM	4.9 nM
C[C@H]1CN(Cc2ccc3c(c2)oc(=O)n3C2CCC(=O)NC2=O)CCN1CC1CCN(C(=O)c2ccc(C3CCN([C@@H](C)c4cc5c(-c6ccc(N)nc6)ccnc5n4C)CC3)cc2)CC1 (stereo partly drawn) [Example 3n6, 3-(6-(((S)-4-((1-(4-(1-((S)-1-(4-(6-aminopyridin-3-yl)-1-methyl-1H-pyrrolo[2,3-b]pyridin-2-yl)ethyl)piperidin-4-yl)benzoyl)piperidin-4-yl)methyl)-3-methylpiperazin-1-yl)methyl)-2-oxobenzo[d]oxazol-3 (2H)-yl)piperidine-2,6-dione]	0.7 nM	4 nM
CN(C(=O)c1ccc(C2CCN(Cc3cc4c(-c5ccc(N)nc5)ccnc4n3C)CC2)cc1)c1ccc(C2CCN(Cc3ccc4c(c3)n(C)c(=O)n4C3CCC(=O)NC3=O)CC2(F)F)cc1 (stereo not shown) [Example 3p2, 4-(1-((4-(6-aminopyridin-3-yl)-1-methyl-1H-pyrrolo[2,3-b]pyridin-2-yl)methyl)piperidin-4-yl)-N-(4-(1-((1-(2,6-dioxopiperidin-3-yl)-3-methyl-2-oxo-2,3-dihydro-1H-benzo[d]imidazol-5-yl)methyl)-3,3-difluoropiperidin-4-yl)phenyl)-N-methylbenzamide]	0.8 nM	17 nM
C[C@H]1CN(Cc2ccc3c(c2)C(C)(C)C(=O)N3C2CCC(=O)NC2=O)CCN1CC1CCN(C(=O)c2ccc(C3CCN([C@@H](C)c4cc5c(-c6ccc(N)nc6)ccnc5n4C)CC3)cc2)CC1 (stereo partly drawn) [Example 3r2, 3-(5-(((S)-4-((1-(4-(1-((S)-1-(4-(6-aminopyridin-3-yl)-1-methyl-1H-pyrrolo[2,3-b]pyridin-2-yl)ethyl)piperidin-4-yl)benzoyl)piperidin-4-yl)methyl)-3-methylpiperazin-1-yl)methyl)-3,3-dimethyl-2-oxoindolin-1-yl)piperidine-2,6-dione]	4.1 nM	14.7 nM
C[C@@H](c1cc2c(-c3ccc(N)nc3)ccnc2n1C)N1CCC(c2ccc(C(=O)N3CCC(F)(CN4CCN(Cc5ccc6c(c5)n(C)c(=O)n6C5CCC(=O)NC5=O)CC4)CC3)cc2)CC1 (stereo partly drawn) [Example 3e32, 3-(5-((4-((1-(4-(1-((S)-1-(4-(6-aminopyridin-3-yl)-1-methyl-1H-pyrrolo[2,3-b]pyridin-2-yl)ethyl)piperidin-4-yl)benzoyl)-4-fluoropiperidin-4-yl)methyl)piperazin-1-yl)methyl)-3-methyl-2-oxo-2,3-dihydro-1H-benzo[d]imidazol-1-yl)piperidine-2,6-dione]	1.6 nM	7.8 nM
CNc1ccc(-c2ccnc3c2cc([C@H](C)N2CC=C(c4c(C)cc(C(=O)N5CCC(CN6CCN(Cc7cc8c(cc7F)N(C7CCC(=O)NC7=O)C(=O)C8(C)C)C[C@@H]6C)CC5)cc4F)CC2)n3C)cn1 (stereo partly drawn) [Example 3h33, 3-(6-fluoro-5-(((S)-4-((1-(3-fluoro-5-methyl-4-(1-((S)-1-(1-methyl-4-(6-(methylamino)pyridin-3-yl)-1H-pyrrolo[2,3-b]pyridin-2-yl)ethyl)-1,2,3,6-tetrahydropyridin-4-yl)benzoyl)piperidin-4-yl)methyl)-3-methylpiperazin-1-yl)methyl)-3,3-dimethyl-2-oxoindolin-1-yl)piperidine-2,6-dione]	36.7 nM	40.4 nM
CNc1ccc(-c2ccnc3c2cc([C@H](C)N2CCC(c4ccc(C(=O)N5CCC(CN6CCN(Cc7ccc8c(c7)n(C7CC7)c(=O)n8[C@H]7CCC(=O)NC7=O)C[C@@H]6C)CC5)cc4)CC2)n3C)cn1 (single isomer, unassigned) [Example 3h26]	1.4 nM	3.1 nM
C[C@@H](c1cc2c(-c3ccc(N)nc3)ccnc2n1C)N1CCC(c2ccc(C(=O)N3CCC(CN4CCN(Cc5ccc6c(c5)oc(=O)n6C5CCC(=O)NC5=O)CC4)CC3)cc2)CC1 (stereo partly drawn) [Example 3n5, 3-(6-((4-((1-(4-(1-((S)-1-(4-(6-aminopyridin-3-yl)-1-methyl-1H-pyrrolo[2,3-b]pyridin-2-yl)ethyl)-piperidin-4-yl)benzoyl)piperidin-4-yl)methyl)piperazin-1-yl)methyl)-2-oxobenzo[d]oxazol-3 (2H)-yl)piperidine-2,6-dione]	2.7 nM	6 nM
COCc1nc2cc(-c3ccnc4c3cc([C@H](C)N3CCC(c5ccc(C(=O)N6CCC(CN7CCN(Cc8ccc9c(c8)n(C8CC8)c(=O)n9C8CCC(=O)NC8=O)C[C@@H]7C)CC6)cc5)CC3)n4C)ccc2[nH]1 (stereo partly drawn) [Example 3e27, 3-(3-cyclo-propyl-5-(((S)-4-((1-(4-(1-((S)-1-(4-(2-(methoxymethyl)-1H-benzo[d]imidazol-5-yl)-1-methyl-1H-pyrrolo[2,3-b]pyridin-2-yl)ethyl)piperidin-4-yl)benzoyl)piperidin-4-yl)methyl)-3-methylpiperazin-1-yl)methyl)-2-oxo-2,3-dihydro-1H-benzo[d]imidazol-1-yl)piperidine-2,6-dione]	0.4 nM	2.7 nM

Next, values leading:

DC50 (STAT6)	EC50 (eotaxin-3 release)	SMILES
0.5 nM	3.8 nM	C[C@H]1CN(Cc2ccc3c(c2)n(C)c(=O)n3C2CCC(=O)NC2=O)CCN1CC1CCN(C(=O)c2ccc(C3CCN([C@@H](C)c4cc5c(-c6ccc(NCCO)nc6)ccnc5n4C)CC3)cc2)CC1 (stereo partly drawn) [Example 3e40, 3-(5-(((S)-4-((1-(4-(1-((S)-1-(4-(6-((2-hydroxyethyl)amino)pyridin-3-yl)-1-methyl-1H-pyrrolo[2,3-b]pyridin-2-yl)ethyl)piperidin-4-yl)benzoyl)piperidin-4-yl)methyl)-3-methylpiperazin-1-yl)methyl)-3-methyl-2-oxo-2,3-dihydro-1H-benzo[d]imidazol-1-yl)piperidine-2,6-dione]
0.3 nM	1.4 nM	C[C@H]1CN(Cc2ccc3c(c2)n(C)c(=O)n3[C@@H]2CCC(=O)NC2=O)CCN1CC1CCN(C(=O)c2ccc(C3CCN([C@@H](C)c4cc5c(-c6ccc(N)nc6)ccnc5n4C)CC3)cc2)CC1 (single isomer, unassigned) [Example 3e49]
0.2 nM	1.4 nM	C[C@H]1CN(Cc2ccc3c(c2)n(C)c(=O)n3C2CCC(=O)NC2=O)CCN1CC1CCN(C(=O)c2ccc(C3CCN([C@@H](C)c4cc5c(-c6ccc7[nH]c(=O)n(C)c7c6)ccnc5n4C)CC3)cc2)CC1 (stereo partly drawn) [Example 3e37, 3-(3-methyl-5-(((S)-3-methyl-4-((1-(4-(1-((S)-1-(1-methyl-4-(3-methyl-2-oxo-2,3-dihydro-1H-benzo[d]imidazol-5-yl)-1H-pyrrolo[2,3-b]pyridin-2-yl)ethyl)piperidin-4-yl)benzoyl)piperidin-4-yl)methyl)piperazin-1-yl)methyl)-2-oxo-2,3-dihydro-1H-benzo[d]imidazol-1-yl)piperidine-2,6-dione]
0.3 nM	1.2 nM	C[C@H]1CN(Cc2cc3c(cc2F)n([C@@H]2CCC(=O)NC2=O)c(=O)n3C)CCN1CC1CCN(C(=O)c2ccc(C3CCN([C@@H](C)c4cc5c(-c6ccc(N)nc6)ccnc5n4C)CC3)cc2)CC1 (single isomer, unassigned) [Example 3e60]
0.8 nM	4.2 nM	CC[C@H]1CN(Cc2ccc3c(c2)n(C)c(=O)n3C2CCC(=O)NC2=O)CCN1CC1CCN(C(=O)c2ccc(C3CCN([C@@H](C)c4cc5c(-c6ccc(N)nc6)ccnc5n4C)CC3)cc2)CC1 (stereo partly drawn) [Example 3e23, 3-(5-(((S)-4-((1-(4-(1-((S)-1-(4-(6-aminopyridin-3-yl)-1-methyl-1H-pyrrolo[2,3-b]pyridin-2-yl)ethyl)piperidin-4-yl)benzoyl)piperidin-4-yl)methyl)-3-ethylpiperazin-1-yl)methyl)-3-methyl-2-oxo-2,3-dihydro-1H-benzo[d]imidazol-1-yl)piperidine-2,6-dione]
0.8 nM	2.8 nM	C[C@H]1CN(Cc2ccc3c(c2)n(C2CC2)c(=O)n3C2CCC(=O)NC2=O)CCN1CC1CCN(C(=O)c2ccc(C3CCN([C@@H](C)c4cc5c(-c6ccc(N)nc6)ccnc5n4C)CC3)cc2)CC1 (stereo partly drawn) [Example 3e17, 3-(5-(((S)-4-((1-(4-(1-((S)-1-(4-(6-aminopyridin-3-yl)-1-methyl-1H-pyrrolo[2,3-b]pyridin-2-yl)ethyl)piperidin-4-yl)benzoyl)piperidin-4-yl)methyl)-3-methylpiperazin-1-yl)methyl)-3-cyclopropyl-2-oxo-2,3-dihydro-1H-benzo[d]imidazol-1-yl)piperidine-2,6-dione]
0.7 nM	3.6 nM	C[C@H]1CN(Cc2ccc3c(c2)n(CC2CC2)c(=O)n3C2CCC(=O)NC2=O)CCN1CC1CCN(C(=O)c2ccc(C3CCN([C@@H](C)c4cc5c(-c6ccc(N)nc6)ccnc5n4C)CC3)cc2)CC1 (stereo partly drawn) [Example 3e54, 3-(5-(((S)-4-((1-(4-(1-((S)-1-(4-(6-aminopyridin-3-yl)-1-methyl-1H-pyrrolo[2,3-b]pyridin-2-yl)ethyl)piperidin-4-yl)benzoyl)piperidin-4-yl)methyl)-3-methylpiperazin-1-yl)methyl)-3-(cyclo-propylmethyl)-2-oxo-2,3-dihydro-1H-benzo[d]imidazol-1-yl)piperidine-2,6-dione]
0.5 nM	1.5 nM	C[C@H]1CN(Cc2ccc3c(c2)n(C)c(=O)n3C2CCC(=O)NC2=O)CCN1CC1CCN(C(=O)c2ccc(C3CCN([C@@H](C)c4cc5c(-c6ccc(N)nc6C#N)ccnc5n4C)CC3)cc2)CC1 (stereo partly drawn) [Example 3e55, 6-amino-3-(2-((1S)-1-(4-(4-(4-(((2S)-4-((1-(2,6-dioxopiperidin-3-yl)-3-methyl-2-oxo-2,3-dihydro-1H-benzo[d]imidazol-5-yl)methyl)-2-methylpiperazin-1-yl)methyl)piperidine-1-carbonyl)phenyl)-piperidin-1-yl)ethyl)-1-methyl-1H-pyrrolo[2,3-b]pyridin-4-yl)picolinonitrile]

From patent US20250325677A1, “STAT6 DEGRADERS” (Gilead Sciences, Inc., priority 2024, published 2025)
